In patent publication US9452980B2, “Substituted benzamides” (Hoffmann-La Roche Inc., priority 2009, dated 2016):
Structures can show the parent of a compound that is named as a salt.

biological target: mouse TAAR1 (Mus musculus (Mouse), UniProt Q923Y8); assay: Radioligand binding assay on mouse TAAR1; settings: mouse TAAR1, HEK-293 membranes, first value of cell mouse/rat; read-out: Ki (μM) mouse
Procedure: (§1) For the construction of expression plasmids the coding sequences of human, rat and mouse TAAR1 were amplified from genomic DNA essentially as described by Lindemann et al.. The Expand High Fidelity PCR System (Roche Diagnostics) was used with 1.5 mM Mg^2+ and purified PCR products were cloned into pCR2.1-TOPO cloning vector (Invitrogen) following the instructions of the manufacturer. PCR products were subcloned into the pIRESneo2 vector (BD Clontech, Palo Alto, Calif.), and expression vectors were sequence verified before introduction in cell lines.
(§2) HEK293 cells (ATCC #CRL-1573) were cultured essentially as described by Lindemann et al. (2005). For the generation of stably transfected cell lines HEK293 cells were transfected with the pIRESneo2 expression plasmids containing the TAAR coding sequences (described above) with Lipofectamine 2000 (Invitrogen) according to the instructions of the manufacturer, and 24 hrs post transfection the culture medium was supplemented with 1 mg/ml G418 (Sigma, Buchs, Switzerland). After a culture period of about 10 d clones were isolated, expanded and tested for responsiveness to trace amines (all compounds purchased from Sigma) with the cAMP Biotrak Enzyme immunoassay (EIA) System (Amersham) following the non-acetylation EIA procedure provided by the manufacturer.
Radioligand Binding Assay on Mouse TAAR1
(§3) Membrane Preparation and Radioligand Binding.
(§4) HEK-293 cells stably expressing mouse TAAR1 were maintained at 37° C. and 5% CO2 in DMEM high glucose medium, containing fetal calf serum (10%, heat inactivated for 30 min at 56° C.), penicillin/streptomycin (1%), and 375 μg/ml geneticin (Gibco). Cells were released from culture flasks using trypsin/EDTA, harvested, washed twice with ice-cold PBS (without Ca^2+ and Mg^2+), pelleted at 1,000 rpm for 5 min at 4° C., frozen and stored at −80° C. Frozen pellets were suspended in 20 ml HEPES-NaOH (20 mM, pH 7.4) containing 10 mM EDTA and homogenized with a Polytron (PT 6000, Kinematica) at 14,000 rpm for 20 s. The homogenate was centrifuged at 48,000×g for 30 min at 4° C. Subsequently, the supernatant was removed and discarded, and the pellet resuspended in 20 ml HEPES-NaOH (20 mM, pH 7.4) containing 0.1 mM EDTA using the Polytron (20 s at 14,000 rpm). This procedure was repeated and the final pellet resuspended in HEPES-NaOH containing 0.1 mM EDTA and homogenized using the Polytron. Typically, aliquots of 2 ml membrane portions were stored at −80° C. With each new membrane batch the dissociation constant (Kd) was determined via a saturation curve. […] Nonspecific binding was defined as the amount of ^3[H]—(S)-4-[(ethyl-phenyl-amino)-methyl]-4,5-dihydro-oxazol-2-ylamine bound in the presence of 10 μM unlabeled ligand. All compounds were tested at a broad range of concentrations (10 pM to 10 μM) in duplicates. […] The 96 deep well plates were incubated for 1 hr at 4° C. Incubations were terminated by rapid filtration through Unifilter-96 plates (Packard Instrument Company) and glass filters GF/C (Perkin Elmer) presoaked for 1 hr in polyethylenimine (0.3%) and washed 3 times with 1 ml of cold binding buffer. After addition of 45 μl of Microscint 40 (PerkinElmer) the Unifilter-96 plate was sealed and after 1 hr the ratioactivity counted using a TopCount Microplate Scintillation Counter (Packard Instrument Company).

mouse TAAR1, sequence (Q923Y8 whole entry): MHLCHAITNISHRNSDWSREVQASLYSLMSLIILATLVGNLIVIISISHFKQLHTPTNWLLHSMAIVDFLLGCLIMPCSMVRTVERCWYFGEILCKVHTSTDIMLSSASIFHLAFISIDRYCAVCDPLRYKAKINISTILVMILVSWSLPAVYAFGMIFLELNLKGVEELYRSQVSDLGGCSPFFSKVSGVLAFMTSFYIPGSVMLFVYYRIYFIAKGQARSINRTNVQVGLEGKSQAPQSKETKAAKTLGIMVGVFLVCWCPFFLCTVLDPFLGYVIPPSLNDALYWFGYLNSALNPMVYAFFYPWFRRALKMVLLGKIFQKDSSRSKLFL

Row | Structure (SMILES) | Ki [µM]
1 | CCN1CCC(c2ccc(NC(=O)c3ccc(Cl)cc3)cc2)C1 (racemic) [Example 33, (RS)-4-Chloro-N-[4-(1-ethyl-pyrrolidin-3-yl)-phenyl]-benzamide] | 0.0006
2 | O=C(Nc1ccc(C2CNCCO2)cc1)c1ccc(Cl)cn1 (racemic) [Example 148, (RS)-5-Chloro-pyridine-2-carboxylic acid (4-morpholin-2-yl-phenyl)-amide hydrochloride] | 0.0393
3 | CC(C(=O)Nc1ccc(C2CCNC2)cc1)c1ccccc1 (racemic) [Example 25, (RS)-2-Phenyl-N—((RS)-4-pyrrolidin-3-yl-phenyl)-propionamide] | 0.32
4 | C[C@H](C(=O)Nc1ccc(C2CCNC2)cc1)c1ccccc1 (mixture of isomers) [Example 30, (S)-2-Phenyl-N—((RS)-4-pyrrolidin-3-yl-phenyl)-propionamide] | 0.053
5 | O=C(Nc1ccc(C2CCNC2)cc1)N1CCCCC1 (racemic) [Example 28, (RS)-Piperidine-1-carboxylic acid (4-pyrrolidin-3-yl-phenyl)-amide] | 0.434
6 | C[C@@H](C(=O)Nc1ccc(C2CCNC2)cc1)c1ccccc1 (mixture of isomers) [Example 29, (R)-2-Phenyl-N—((RS)-4-pyrrolidin-3-yl-phenyl)-propionamide] | 0.102
7 | O=C(Nc1ccc(C2CNCCO2)cc1)c1ccc(Cl)c(Cl)c1 (racemic) [Example 147, (RS)-3,4-Dichloro-N-(4-morpholin-2-yl-phenyl)-benzamide hydrochloride] | 0.001

Second part, the compound after the results:

Row | Ki [µM] | Structure (SMILES)
8 | 0.0663 | O=C(Nc1ccc(C2CCNC2)cn1)c1ccc(Cl)cc1 (racemic) [Example 181, (RS)-4-Chloro-N-(5-(pyrrolidin-3-yl)pyridin-2-yl)benzamide hydrochloride]
9 | 0.153 | O=C(Nc1ccc(C2CCCNC2)cc1)c1ccccc1 (racemic) [Example 184, (RS)—N-(4-(piperidin-3-yl)phenyl)benzamide hydrochloride]
10 | 0.0227 | O=C(Nc1ccc(COC2CCNC2)cc1)c1ccc(Cl)cc1 (racemic) [Example 145, (RS)-4-Chloro-N-[4-(pyrrolidin-3-yloxymethyl)-phenyl]-benzamide hydrochloride]
11 | 0.0526 | COc1ccc(C(=O)Nc2ccc(C3CCNC3)cc2)cc1 (racemic) [Example 183, (RS)-4-Methoxy-N-(4-(pyrrolidin-3-yl)phenyl)benzamide hydrochloride]
12 | 0.499 | COc1cccc(C(C)C(=O)Nc2ccc(C3CCNC3)cc2)c1 (racemic) [Example 67, (RS)-2-(3-Methoxy-phenyl)-N—((RS)-4-pyrrolidin-3-yl-phenyl)-propionamide]
13 | 0.0035 | CN1CCOC(c2ccc(NC(=O)c3ccc(Cl)cc3)cc2)C1 (racemic) [Example 80, (RS)-4-Chloro-N-[4-(4-methyl-morpholin-2-yl)-phenyl]-benzamide]

biological target: rat TAAR1 (Rattus norvegicus (Rat), UniProt Q923Y9); assay: Radioligand binding assay on rat TAAR1; settings: rat TAAR1, HEK-293 membranes, second value of cell mouse/rat; read-out: Ki (μM) rat
Procedure: as §1, §2
Radioligand Binding Assay on Rat TAAR1
as §3
as §4, with “rat” for “mouse”

rat TAAR1, sequence (Q923Y9 whole entry): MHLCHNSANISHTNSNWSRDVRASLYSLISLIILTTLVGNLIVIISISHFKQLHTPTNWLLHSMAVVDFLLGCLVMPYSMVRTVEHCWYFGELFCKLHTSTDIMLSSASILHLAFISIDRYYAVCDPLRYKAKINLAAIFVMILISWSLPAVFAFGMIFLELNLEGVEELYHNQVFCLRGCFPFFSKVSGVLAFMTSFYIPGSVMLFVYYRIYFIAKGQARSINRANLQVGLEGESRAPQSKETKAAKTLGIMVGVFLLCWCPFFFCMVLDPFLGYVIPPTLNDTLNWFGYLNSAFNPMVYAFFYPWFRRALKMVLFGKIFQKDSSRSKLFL

Row | Structure (SMILES) | Ki [µM]
14 | O=C(NCc1ccccc1)Nc1ccc(C2CCNC2)cc1 (racemic) [Example 9, (RS)-1-Benzyl-3-(4-pyrrolidin-3-yl-phenyl)-urea hydrochloride] | 1.11
15 | CN(C(=O)Nc1ccc(C2CCNC2)cc1)c1ccccc1 (racemic) [Example 14, (RS)-1-Methyl-1-phenyl-3-(4-pyrrolidin-3-yl-phenyl)-urea] | 0.645
16 | O=C(Nc1ccc(C2CNCCO2)cc1)C1CCN(c2ccncn2)CC1 (racemic) [Example 287, (RS)—N-(4-(Morpholin-2-yl)phenyl)-1-(pyrimidin-4-yl)piperidine-4-carboxamide dihydrochloride] | 0.379
17 | O=C(Nc1ccc(C2CCNC2)cc1)NC1CCCCC1 (racemic) [Example 10, (RS)-1-Cyclohexyl-3-(4-pyrrolidin-3-yl-phenyl)-urea hydrochloride] | 0.309
18 | O=C(Nc1ccc(C2CCNC2)cc1)N1CCOCC1 (racemic) [Example 21, (RS)-Morpholine-4-carboxylic acid (4-pyrrolidin-3-yl-phenyl)-amide hydrochloride] | 0.359
19 | O=C(Nc1ccc(C2CNCCO2)cc1)c1ccc(Cl)cc1 (racemic) [Example 71, (RS)-4-Chloro-N-(4-morpholin-2-yl-phenyl)-benzamide hydrochloride] | 0.0121
20 | O=C(Cc1ccccc1)Nc1ccc(C2CCNC2)cc1 (racemic) [Example 12, (RS)-2-Phenyl-N-(4-pyrrolidin-3-yl-phenyl)-acetamide hydrochloride] | 0.29

The next lines start with the values.

Row | Ki [µM] | Structure (SMILES)
21 | 0.0985 | COCc1ccc(C(=O)Nc2ccc(C3CCNC3)cc2)cc1 (racemic) [Example 51, (RS)-4-Methoxymethyl-N-(4-pyrrolidin-3-yl-phenyl)-benzamide hydrochloride]
22 | 0.0226 | O=C(NCc1ccc([C@H]2CNCCO2)cc1)c1ccc(Cl)cc1 [Example 317, (S)-4-Chloro-N-(4-(morpholin-2-yl)benzyl)benzamide hydrochloride]
23 | 2.98 | CC1(c2ccc(NC(=O)c3ccccc3)cc2)CCNC1 (racemic) [Example 41, (RS)—N-[4-(3-Methyl-pyrrolidin-3-yl)-phenyl]-benzamide]
24 | 0.0206 | O=C(NCc1ccc([C@H]2CNCCO2)cc1)c1ccc(Cl)nc1 [Example 319, (S)-6-Chloro-N-(4-(morpholin-2-yl)benzyl)nicotinamide hydrochloride]
25 | 0.0007 | O=C(Nc1ccc(C2CCNC2)cc1)OCCc1ccc(OC(F)(F)F)cc1 (racemic) [Example 125, (RS)-(4-Pyrrolidin-3-yl-phenyl)-carbamic acid 2-(4-trifluoromethoxy-phenyl)-ethyl ester]
26 | 0.0123 | O=C(Nc1ccc(C2CCCNC2)cn1)c1ccc(Cl)cc1 (racemic) [Example 187, (RS)-4-Chloro-N-(5-(piperidin-3-yl)pyridin-2-yl)benzamide hydrochloride]
27 | 0.324 | O=C(Nc1ccc(C2CCN(c3ccccc3)C2)cc1)c1ccc(Cl)cc1 (racemic) [Example 36, (RS)-4-Chloro-N-[4-(1-phenyl-pyrrolidin-3-yl)-phenyl]-benzamide]
28 | 0.0677 | Cc1cnc(C(=O)Nc2ccc([C@@H]3CCCNC3)cc2)cn1 [Example 247, (S)-5-Methyl-N-(4-(piperidin-3-yl)phenyl)pyrazine-2-carboxamide hydrochloride]

same assay, conditions: read-out: Ki (μM) rat

Row | Structure (SMILES) | Ki [µM]
29 | O=C(NCc1ccc([C@H]2CNCCO2)cc1)c1ccc(C(F)(F)F)nc1 [Example 320, (S)—N-(4-(Morpholin-2-yl)benzyl)-6-(trifluoromethyl)nicotinamide hydrochloride] | 0.0249
